Assay results: ChEMBL document CHEMBL1909046, “DrugMatrix in vitro pharmacology data”

Experiments:
[1] = target: T1, C-X-C chemokine receptor type 2 (Homo sapiens, UniProt P25025); assay type: cell membranes, Membrane; settings: cho-k1; also: in other assays of this panel Not Active means under 50% inhibition at 10 µM
T1 sequence (P25025 whole entry): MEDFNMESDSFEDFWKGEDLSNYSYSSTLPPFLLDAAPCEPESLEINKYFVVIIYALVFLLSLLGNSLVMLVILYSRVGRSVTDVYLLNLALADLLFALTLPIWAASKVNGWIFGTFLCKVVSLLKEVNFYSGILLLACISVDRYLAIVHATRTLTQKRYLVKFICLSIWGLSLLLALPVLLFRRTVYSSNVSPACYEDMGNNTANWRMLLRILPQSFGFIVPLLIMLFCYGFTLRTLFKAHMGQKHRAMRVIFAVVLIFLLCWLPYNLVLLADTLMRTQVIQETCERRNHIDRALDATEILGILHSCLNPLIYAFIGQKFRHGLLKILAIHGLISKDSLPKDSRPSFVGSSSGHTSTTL

[2] = DRUGMATRIX: Glutamate, NMDA, Phencyclidine radioligand binding (ligand: [3H] TCP); assay type: cell membranes, Rattus norvegicus, Wistar, Cerebral cortex, Membrane; settings: Not Active = under 50% inhibition at 10 µM
[3] = DRUGMATRIX: Calcium Channel Type L, Benzothiazepine radioligand binding (ligand: [3H] Diltiazem); assay type: cell membranes, Rattus norvegicus, Wistar, Brain, Membrane; settings: Not Active = under 50% inhibition at 10 µM
[4] = target: T2, 3-hydroxy-3-methylglutaryl-coenzyme A reductase (Homo sapiens, UniProt P04035); set-up: species or system Escherichia coli;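 also: enzyme inhibition assay of HMG-CoA reductase using radiolabeled [14C]HMG-CoA as substrate; in other assays of this panel Not Active means under 50% inhibition at 10 µM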
T2 sequence (P04035 whole entry): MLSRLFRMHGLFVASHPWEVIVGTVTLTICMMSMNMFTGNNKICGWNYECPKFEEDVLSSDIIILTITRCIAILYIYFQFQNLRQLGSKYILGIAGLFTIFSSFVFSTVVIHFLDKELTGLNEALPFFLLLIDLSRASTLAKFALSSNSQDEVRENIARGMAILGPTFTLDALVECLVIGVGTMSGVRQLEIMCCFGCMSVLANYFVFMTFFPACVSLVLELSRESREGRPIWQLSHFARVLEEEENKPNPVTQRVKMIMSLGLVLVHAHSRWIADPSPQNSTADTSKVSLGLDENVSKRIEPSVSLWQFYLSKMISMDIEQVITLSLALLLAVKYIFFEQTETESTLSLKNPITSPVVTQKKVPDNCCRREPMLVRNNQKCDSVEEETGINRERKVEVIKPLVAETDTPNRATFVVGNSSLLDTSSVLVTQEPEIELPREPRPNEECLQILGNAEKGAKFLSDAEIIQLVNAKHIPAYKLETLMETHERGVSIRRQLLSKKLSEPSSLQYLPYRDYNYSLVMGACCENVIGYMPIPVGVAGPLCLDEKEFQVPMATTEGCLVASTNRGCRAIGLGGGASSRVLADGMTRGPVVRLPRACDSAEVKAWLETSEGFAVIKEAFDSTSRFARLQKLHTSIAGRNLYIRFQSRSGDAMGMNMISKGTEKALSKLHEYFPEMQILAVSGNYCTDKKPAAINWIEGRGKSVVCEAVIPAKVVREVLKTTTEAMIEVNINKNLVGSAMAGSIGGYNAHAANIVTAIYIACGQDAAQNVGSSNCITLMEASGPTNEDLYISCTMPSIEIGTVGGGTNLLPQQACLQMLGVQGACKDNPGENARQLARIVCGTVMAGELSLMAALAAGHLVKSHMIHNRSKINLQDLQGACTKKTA

[5] = DRUGMATRIX: Sodium/nucleoside co-transporter radioligand binding (ligand: nitrobenzylthioinosine); assay type: cell membranes, Cavia porcellus, Dunkin-Hartley, Cerebral cortex, Membrane; settings: Not Active = under 50% inhibition at 10 µM
[6] = target: T3, Muscarinic acetylcholine receptor M2 (Homo sapiens, UniProt P08172); assay type: cell membranes, CHO-K1, Membrane; settings: cho-k1; also: in other assays of this panel Not Active means under 50% inhibition at 10 µM
T3 sequence (P08172 whole entry): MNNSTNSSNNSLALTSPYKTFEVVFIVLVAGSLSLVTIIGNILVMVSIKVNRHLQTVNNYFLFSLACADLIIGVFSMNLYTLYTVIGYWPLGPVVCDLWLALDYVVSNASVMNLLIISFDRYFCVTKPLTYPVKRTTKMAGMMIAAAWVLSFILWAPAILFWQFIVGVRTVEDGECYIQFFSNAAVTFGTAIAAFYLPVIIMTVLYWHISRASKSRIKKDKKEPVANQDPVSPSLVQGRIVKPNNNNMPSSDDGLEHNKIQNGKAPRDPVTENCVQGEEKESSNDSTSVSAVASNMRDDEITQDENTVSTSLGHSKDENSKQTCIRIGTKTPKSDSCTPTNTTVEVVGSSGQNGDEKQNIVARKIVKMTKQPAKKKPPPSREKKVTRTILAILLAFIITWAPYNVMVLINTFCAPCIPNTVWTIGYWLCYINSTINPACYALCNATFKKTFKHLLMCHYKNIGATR

Cc1cccc(C)c1OCC(C)N (centres undefined) [MEXILETINE]
Not Active: IC50 [1] | IC50 [2] | Ki [2] | IC50 [3] | Ki [3] | IC50 [4] | IC50 [5] | Ki [5] | IC50 [6]

Nc1cc(N2CCCCC2)nc(N)[n+]1[O-] [MINOXIDIL]
Not Active: IC50 [1] | IC50 [2] | Ki [2] | IC50 [3] | Ki [3] | IC50 [4] | IC50 [5] | Ki [5] | IC50 [6]

CO[C@H]1/C=C/O[C@@]2(C)Oc3c(C)c(O)c4c(O)c(c(/C=N/N5CCN(C6CCCC6)CC5)c(O)c4c3C2=O)NC(=O)/C(C)=C\C=C\[C@H](C)[C@H](O)[C@@H](C)[C@@H](O)[C@@H](C)[C@H](OC(C)=O)[C@@H]1C [RIFAPENTINE]
Not Active: IC50 [1] | IC50 [2] | Ki [2] | IC50 [3] | Ki [3] | IC50 [4] | IC50 [5] | Ki [5] | IC50 [6]

CCCCOc1cc(CC2CNC(=O)N2)ccc1OC (centres undefined) [RO-201724]
Not Active: IC50 [1] | IC50 [2] | Ki [2] | IC50 [3] | Ki [3] | IC50 [4] | IC50 [5] | Ki [5] | IC50 [6]

CC[C@@H](C(=O)[C@@H](C)[C@@H](O)[C@H](C)[C@@H]1O[C@@H]([C@@H](CC)C(=O)O)CC[C@@H]1C)[C@H]1O[C@]2(C=C[C@@H](O)[C@]3(CC[C@@](C)([C@H]4CC[C@](O)(CC)[C@H](C)O4)O3)O2)[C@H](C)C[C@@H]1C [SALINOMYCIN]
Not Active: IC50 [1] | IC50 [2] | Ki [2] | IC50 [3] | Ki [3] | IC50 [4] | IC50 [5] | Ki [5] | IC50 [6]

O=C(Oc1ccccc1C(=O)O)c1ccccc1O [SALSALATE]
Not Active: IC50 [1] | IC50 [2] | Ki [2] | IC50 [3] | Ki [3] | IC50 [4] | IC50 [5] | Ki [5] | IC50 [6]

O=C(O)c1cn(-c2ccc(F)cc2)c2cc(N3CCNCC3)c(F)cc2c1=O [SARAFLOXACIN]
Not Active: IC50 [1] | IC50 [2] | Ki [2] | IC50 [3] | Ki [3] | IC50 [4] | IC50 [5] | Ki [5] | IC50 [6]

CC(C)NCC(O)c1ccc(NS(C)(=O)=O)cc1 (centres undefined) [SOTALOL]
Not Active: IC50 [1] | IC50 [2] | Ki [2] | IC50 [3] | Ki [3] | IC50 [4] | IC50 [5] | Ki [5] | IC50 [6]

O.O.O.O.O.O.[Cl-].[Cl-].[Sr+2] [STRONTIUM CHLORIDE HEXAHYDRATE]
Not Active: IC50 [1] | IC50 [2] | Ki [2] | IC50 [3] | Ki [3] | IC50 [4] | IC50 [5] | Ki [5] | IC50 [6]

O=C1C(CC[S+]([O-])c2ccccc2)C(=O)N(c2ccccc2)N1c1ccccc1 (centres undefined) [SULFINPYRAZONE]
Not Active: IC50 [1] | IC50 [2] | Ki [2] | IC50 [3] | Ki [3] | IC50 [4] | IC50 [5] | Ki [5] | IC50 [6]

NC(=O)N1C(=O)/C(=C(\O)c2cccs2)c2cc(Cl)ccc21 [TENIDAP]
Not Active: IC50 [1] | IC50 [2] | Ki [2] | IC50 [3] | Ki [3] | IC50 [4] | IC50 [5] | Ki [5] | IC50 [6]

COc1cc2nc(N3CCN(C(=O)C4CCCO4)CC3)nc(N)c2cc1OC (centres undefined) [TERAZOSIN]
Not Active: IC50 [1] | IC50 [2] | Ki [2] | IC50 [3] | Ki [3] | IC50 [4] | IC50 [5] | Ki [5] | IC50 [6]

CN(C/C=C/C#CC(C)(C)C)Cc1cccc2ccccc12 [TERBINAFINE]
Not Active: IC50 [1] | IC50 [2] | Ki [2] | IC50 [3] | Ki [3] | IC50 [4] | IC50 [5] | Ki [5] | IC50 [6]

CCCCNc1ccc(C(=O)OCCN(C)C)cc1 [TETRACAINE]
Not Active: IC50 [1] | IC50 [2] | Ki [2] | IC50 [3] | Ki [3] | IC50 [4] | IC50 [5] | Ki [5] | IC50 [6]

Cn1c(=O)c2nc[nH]c2n(C)c1=O.O [THEOPHYLLINE]
Not Active: IC50 [1] | IC50 [2] | Ki [2] | IC50 [3] | Ki [3] | IC50 [4] | IC50 [5] | Ki [5] | IC50 [6]

CS(=O)(=O)c1ccc([C@@H](O)[C@@H](CO)NC(=O)C(Cl)Cl)cc1 [THIAMPHENICOL]
Not Active: IC50 [1] | IC50 [2] | Ki [2] | IC50 [3] | Ki [3] | IC50 [4] | IC50 [5] | Ki [5] | IC50 [6]
